Like-named read-outs stand apart in the source and are kept apart here.
Legend:
[1] = opioid challenged cynomolgus monkeys, intravenous; cited from earlier work
[2] = target: T1, human TASK-3 (Homo sapiens, UniProt Q9NPC2); assay: Whole-cell patch clamp on tsA201 cells expressing cloned human TASK-3; format: cell-based; conditions: for inhibition of human TASK-3 current: acute application; for EC50: tsA201 cells, whole-cell patch clamp, room temperature, read-out: EC50, inhibition of human TASK-3 current
T1 construct: expressed in transfected cells; host or cells: tsA201 (modified HEK293), transient transfection, pcDNA3.1+
T1 sequence (Q9NPC2 whole entry): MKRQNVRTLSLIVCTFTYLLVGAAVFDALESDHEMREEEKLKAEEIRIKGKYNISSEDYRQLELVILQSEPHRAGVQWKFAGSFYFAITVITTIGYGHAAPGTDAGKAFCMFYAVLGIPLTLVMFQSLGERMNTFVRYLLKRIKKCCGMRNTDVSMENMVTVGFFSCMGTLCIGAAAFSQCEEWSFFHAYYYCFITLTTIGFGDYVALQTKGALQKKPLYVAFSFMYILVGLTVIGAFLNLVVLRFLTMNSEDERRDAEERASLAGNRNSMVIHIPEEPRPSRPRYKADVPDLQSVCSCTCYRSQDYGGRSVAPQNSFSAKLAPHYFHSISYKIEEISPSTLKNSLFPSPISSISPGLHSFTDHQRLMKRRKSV
Experimental: (§1) Murine (mur) wild‐type (WT) TASK‐1 (KCNK3, Genbank^TM DQ185133) and WT murTASK‐3 (KCNK9, Genbank^TM AH009585.2) cDNA were cloned into pCS2^+ vector and were a kind gift from William Wisden (Imperial College, UK). Human WT TASK‐1 (Genbank^TM AF006823.1), WT TASK‐3 (Genbank^TM AF212829) and WT TASK‐2 (KCNK5, Genbank^TM AF084830.1) cDNA’s, were cloned into pcDNA3.1^+ vector (Invitrogen) and were a kind gift from Helen Meadows (GlaxoSmithKline).
(§2) All experiments were performed using a modified human embryonic kidney 293 cell line, tsA201 (ECACC; Sigma‐Aldrich), prepared and maintained as previously described.54
(§3) For the electrophysiological experiments, cells were transiently transfected using a modified calcium phosphate protocol, following a process as previously described.54 Vectors cloned with the gene of interest and a similar vector encoding the cDNA for GFP were added to each well at a concentration of 0.5 µg per well, with the exception being for murTASK‐3, where 0.125 µg per well was used.
(§4) Currents were recorded from tsA201 cells transiently transfected with the channel of interest using whole‐cell patch clamp in a voltage clamp configuration and a step‐ramp voltage protocol as previously described.54 Briefly, all experiments were conducted at room temperature (20‐24°C) using an external solution composed of 145 mM of NaCl, 2.5 mM of KCL, 3 mM of MgCl2, 1 mM of CaCl2 and 10 mM of HEPES (pH 7.4, using NaOH) and an intracellular pipette solution composed of 150 mM of KCL, 3 mM of MgCl2, 5 mM of EGTA and 10 mM of HEPES (pH adjusted to 7.4 with KOH). External solution and modulatory compounds were superfused at a rate of 4‐5 mL min^−1. Currents were recorded using an Axopatch 1D patch clamp amplifier (Molecular Devices), filtered at 0.3 kHz, digitized at 1 kHz.
(§5) For analysis of outward current, we measured the current difference between the −80 and −40 mV. The current‐voltage graphs were obtained from the ramp change in voltage between −120 and +20 mV. For each cell, the current amplitude (pA) was normalized to the cell capacitance (pF). The currents obtained were analysed using pCLAMP 10.2 software (Molecular Devices), Microsoft Excel and GraphPad Prism 6 or 7 software. Data were expressed as the mean ± 95% Confidence Intervals (CI), and n represents the number of individual cells. For EC50 calculations, concentration‐response curves were fitted using the Hill equation. Statistical analysis used were one‐way ANOVA with a post‐hoc Dunnett's test or an unpaired/paired Student's t test. Data were considered statistically different if P < .05. The data and statistical analysis comply with the recommendations on experimental design and analysis in pharmacology.55

[3] = target: T2, human TASK-1 (Homo sapiens, UniProt O14649); assay: Whole-cell patch clamp on tsA201 cells expressing cloned human TASK-1; format: cell-based; conditions: for inhibition of human TASK-1 current: acute application; for EC50: tsA201 cells, whole-cell patch clamp, room temperature, read-out: EC50, inhibition of human TASK-1 current
T2 construct: expressed in transfected cells; host or cells: tsA201 (modified HEK293), transient transfection, pcDNA3.1+
T2 sequence (O14649 whole entry): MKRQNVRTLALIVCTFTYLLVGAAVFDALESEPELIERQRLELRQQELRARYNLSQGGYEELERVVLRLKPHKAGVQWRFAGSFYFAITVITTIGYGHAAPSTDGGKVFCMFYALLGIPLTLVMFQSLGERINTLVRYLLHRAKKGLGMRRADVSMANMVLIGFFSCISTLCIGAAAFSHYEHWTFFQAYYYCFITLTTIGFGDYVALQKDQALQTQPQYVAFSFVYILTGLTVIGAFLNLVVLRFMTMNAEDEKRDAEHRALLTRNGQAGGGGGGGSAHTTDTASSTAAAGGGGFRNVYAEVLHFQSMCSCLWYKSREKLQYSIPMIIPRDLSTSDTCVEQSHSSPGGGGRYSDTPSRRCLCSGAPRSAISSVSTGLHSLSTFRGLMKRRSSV
Experimental: as §1, §2, §3, §4, §5

[4] = opioid challenged rats, intravenous; cited from earlier work
[5] = target: T3, murTASK-3 (Mus musculus, UniProt Q3LS21); assay: Whole-cell patch clamp on tsA201 cells expressing cloned mouse TASK-3; format: cell-based; conditions: 10 µM, acute application
T3 construct: expressed in transfected cells; host or cells: tsA201 (modified HEK293), transient transfection, pCS2+
T3 sequence (Q3LS21 whole entry): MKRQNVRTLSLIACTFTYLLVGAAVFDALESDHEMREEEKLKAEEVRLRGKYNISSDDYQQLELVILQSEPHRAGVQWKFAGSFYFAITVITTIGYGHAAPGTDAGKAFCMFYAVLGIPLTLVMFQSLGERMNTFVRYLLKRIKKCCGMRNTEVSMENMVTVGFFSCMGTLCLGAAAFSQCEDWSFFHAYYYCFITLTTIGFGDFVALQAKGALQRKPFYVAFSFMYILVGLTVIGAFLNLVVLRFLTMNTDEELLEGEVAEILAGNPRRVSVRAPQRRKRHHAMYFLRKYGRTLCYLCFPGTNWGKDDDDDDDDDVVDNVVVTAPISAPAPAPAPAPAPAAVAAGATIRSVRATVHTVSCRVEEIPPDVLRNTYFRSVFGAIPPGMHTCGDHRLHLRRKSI
Experimental: as §1, §2, §3, §4, §5

[6] = target: T4, murTASK-1 (Mus musculus, UniProt O35111); assay: Whole-cell patch clamp on tsA201 cells expressing cloned mouse TASK-1; format: cell-based; conditions: 10 µM, acute application
T4 construct: expressed in transfected cells; host or cells: tsA201 (modified HEK293), transient transfection, pCS2+
T4 sequence (O35111 whole entry): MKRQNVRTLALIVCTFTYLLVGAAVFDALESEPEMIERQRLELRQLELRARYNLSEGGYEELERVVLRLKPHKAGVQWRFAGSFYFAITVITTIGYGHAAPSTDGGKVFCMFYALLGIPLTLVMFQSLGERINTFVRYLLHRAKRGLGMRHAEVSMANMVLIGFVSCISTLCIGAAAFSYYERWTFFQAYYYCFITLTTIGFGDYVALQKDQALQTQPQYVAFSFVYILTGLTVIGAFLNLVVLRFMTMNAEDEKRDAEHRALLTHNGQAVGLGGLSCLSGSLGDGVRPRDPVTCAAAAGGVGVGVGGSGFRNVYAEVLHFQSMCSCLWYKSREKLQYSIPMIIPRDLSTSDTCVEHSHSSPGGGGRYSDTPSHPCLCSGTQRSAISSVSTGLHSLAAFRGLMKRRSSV
Experimental: as §1, §2, §3, §4, §5

| Compound | effect on minute volume [1] | inhibition of human TASK-3 current ([2]; 10 µM, WT) [%] | inhibition of human TASK-3 current ([2]; 100 µM, WT) [%] | inhibition of human TASK-3 current ([2]; 300 µM) [%] | EC50 [2] [µM] | inhibition of human TASK-1 current ([3]; 10 µM) [%] | inhibition of human TASK-1 current ([3]; 100 µM) [%] | inhibition of human TASK-1 current ([3]; 300 µM) [%] | EC50 [3] [µM] | effect on minute volume [4] | inhibition of human TASK-3 current ([2]; 1 µM) [%] | inhibition of human TASK-3 current ([2]; 3 µM) [%] | inhibition of human TASK-1 current ([3]; 1 µM) [%] | inhibition of human TASK-1 current ([3]; 3 µM) [%] | current inhibition of murTASK-3 [5] [%] | current inhibition of murTASK-1 [6] [%] |
| --- | --- | --- | --- | --- | --- | --- | --- | --- | --- | --- | --- | --- | --- | --- | --- | --- |
| CCN1CC(CCN2CCOCC2)C(c2ccccc2)(c2ccccc2)C1=O (stereo not shown) [GAL‐053] | had no effect | 8 | 35 | 50 | ~286 | 3 | 24 | 47 | ~336 | had no effect |  |  |  |  |  |  |
| CCN1CC(CCN2CCOCC2)C(c2ccccc2)(c2ccccc2)C1=O (stereo not shown) [GAL‐054] | dose‐dependently increased minute volume | 79 |  |  | ~1.4 | 75 |  |  | ~1.6 | dose‐dependently increased minute volume | 43 | 66 | 45 | 54 | 33 | 63 |
